# Patent US20130189764A1, “SELECTIVE GROWTH MEDIA” (Oxide Limited, priority 2000, published 2013)
# What was measured:
# Citrobacter freundii 370 = test: MIC in DMSal medium (Example 17); assay type: cell-based; details: Citrobacter freundii 370, DMSal medium
# [1] = test system: Enterobacter sakazakii 1888; test: MIC in DMSal medium (Example 17); assay type: cell-based; details: Enterobacter sakazakii 1888, DMSal medium
# E. coli 607 = test: MIC in DMSal medium (Example 17); assay type: cell-based; details: E. coli 607, DMSal medium
# [2] = test system: Salmonella typhimurium 722; test: MIC in DMSal medium (Example 17); assay type: cell-based; details: for MIC: Salmonella typhimurium 722, DMSal medium; for effect on growth of Salmonella typhimurium: DMSal
# Description: (§1) Isoleucyl-AEP and sarcosyl-alanyl-AEP were compared to ala-AEP (all in DMSal medium) for the ability to selectively recover two clinically important pathogenic bacteria: Salmonella and Staphylococcus aureus.
# (§2) For selective growth of Salmonella inhibition of Citrobacter, Enterobacter sakazakii and E. coli is important. […] Sarcosyl-alanyl-AEP used at a concentration of 1.0 μg/ml is sufficient to inhibit the growth of all three undesired bacteria while having no effect on growth of Salmonella typhimurium. […] Alternatively, a concentration of 2.0 μg/ml of isoleucyl-AEP is required to inhibit the growth of Citrobacter, Enterobacter sakazakii and E. coli and this concentration has no effect on the Salmonella typhimurium strain tested.
# [3] = test system: Enterococcus faecalis 501; test: MIC in DMSal medium (Example 17); assay type: cell-based; details: Enterococcus faecalis 501, DMSal medium
# [4] = test system: Enterococcus faecalis 581; test: MIC in DMSal medium (Example 17); assay type: cell-based; details: Enterococcus faecalis 581, DMSal medium
# Source text: as §1
# S. aureus (MRSA) 934 = test: MIC in DMSal medium (Example 17); assay type: cell-based; details: S. aureus (MRSA) 934, DMSal medium
# Source text: as §1
# S. aureus 198 = test: MIC in DMSal medium (Example 17); assay type: cell-based; details: S. aureus 198, DMSal medium
# Source text: as §1
# S. aureus ss aureus 2355 = test: MIC in DMSal medium (Example 17); assay type: cell-based; details: S. aureus ss aureus 2355, DMSal medium
# Source text: as §1
# [5] = test system: Enterococcus faecalis 640; test: MIC in DMSal medium (Example 17); assay type: cell-based; details: Enterococcus faecalis 640, DMSal medium
# Enterococcus faecium 220 = test: MIC in DMSal medium (Example 17); assay type: cell-based; details: Enterococcus faecium 220, DMSal medium
# [6] = test system: Citrobacter, Enterobacter sakazakii and E. coli; test: inhibition of the three undesired bacteria in DMSal (Example 17); assay type: cell-based
# Description: as §1, §2
# [7] = log octanol/water; footnote a: Leo et al (1971); cited from earlier work
# [8] = test system: Bacillus subtilis strain OCC 214; test: growth on nutrient agar streak plates, pure culture (Example 1); assay type: cell-based; details: B. subtilis OCC214, nutrient agar, 0-10 mM tested
# Source text: In example 1 the sensitivity of Bacillus subtilis strain OCC 214 to alaphosphin or AEP was investigated. […] The organism is known to be LALA-ve, so the observations agree with the known characteristics of the organism.
# [9] = test system: Salmonella typhimurium OCC 1870; test: growth on nutrient agar streak plates, pure culture (Example 2); assay type: cell-based; details: S. typhimurium OCC 1870, nutrient agar, 0-10 mM tested
# Source text: Example 1 was repeated, using Salmonella typhimurium OCC 1870 as the test organism. The results are shown in FIG. 3, which uses the same key as FIG. 2.
# [10] = test system: Enterococcus faecalis OCC 640; test: growth on nutrient agar streak plates, pure culture (Example 3); assay type: cell-based; details: E. faecalis OCC 640, nutrient agar, 0-10 mM tested
# Source text: Example 1 was repeated using Enterococcus faecalis OCC 640 as the test organism.
# [11] = test system: Klebsiella pneumoniae CMCC 3077; test: growth on nutrient agar streak plates, pure culture (Example 4); assay type: cell-based; details: K. pneumoniae CMCC 3077, nutrient agar, 0-10 mM tested
# Source text: Example 1 was repeated using Klebsiella pneumoniae CMCC 3077 as the test organism. The results are shown in FIG. 5, and are qualitatively similar to those obtained in example 2.
# [12] = test system: Staphylococcus aureus OCC 102; test: growth on nutrient agar streak plates, pure culture (Example 5); assay type: cell-based; details: S. aureus OCC 102, nutrient agar, all concentrations tested (up to 10 mM)
# Source text: Example 1 was repeated using Staphylococcus aureus OCC 102 as the test organism.
# K. pneumoniae CMCC 3077 [13] = test: growth on nutrient agar, mixed culture with S. aureus (Example 6); assay type: cell-based, Klebsiella pneumoniae
# Source text: (§3) Example 1 was repeated, this time using a mixed culture of K. pneumoniae CMCC 3077 and S. aureus OCC 102. The results for growth in the presence of AEP or alaphosphin are shown in FIGS. 7 and 8 respectively: empty columns represent growth of S. aureus, the shaded columns represent growth of K. pneumoniae. […] Accordingly, there is a considerable alaphosphin concentration range over which S. aureus will readily grow whilst K. pneumoniae will be inhibited. Even if K. pneumoniae cells lyse due to the toxic effect of AEP released intracellularly, the AEP is not toxic for S. aureus at the concentrations involved.
# S. aureus OCC 102 = test: growth on nutrient agar, mixed culture with K. pneumoniae (Example 6); assay type: cell-based, Staphylococcus aureus
# Source text: as §3
# B. subtilis OCC 214 = test: growth on nutrient agar, mixed culture with K. pneumoniae (Example 8); assay type: cell-based, Bacillus subtilis; details: B. subtilis in mixed culture with K. pneumoniae
# Source text: (§4) Example 6 was repeated, this time using a mixed culture of B. subtilis OCC 214 and K. pneumoniae CMCC 3077, in the presence of AEP or alaphosphin. The empty columns show the growth of B. subtilis, the shaded columns denote growth of K. pneumoniae.
# K. pneumoniae CMCC 3077 [14] = test: growth on nutrient agar, mixed culture with B. subtilis (Example 8); assay type: cell-based, Klebsiella pneumoniae; details: all concentrations tested
# Source text: as §4
# [15] = test system: Klebsiella pneumoniae CMCC3077; test: total viable count in Nutrient Broth (Example 10); assay type: cell-based; details: 5 mM in Nutrient Broth, 37° C.
# Description: Growth curve data on the activity of alaphosphin towards Klebsiella spp. was generated. Particular attention was paid to measuring the kinetics of inhibition in broth culture. The media used in this work were Buffered Peptone Water, Nutrient Broth and Tryptone Soya Agar. The media were prepared according to the manufacturer's instructions.
# The selective agents, AEP (Cat. No. 06655) and alaphosphin (Cat. No. 05260), were supplied by Fluka. They were dissolved in water at 0.5M concentration, filter-sterilised, and 100 μl added to 10 ml of Nutrient Broth to give a final concentration in the test medium of 5 mM of AEP or alaphosphin respectively.
# Klebsiella pneumnoniae CMCC3077 was chosen, as it is a food isolate and work had been carried out previously on this organism using alaphosphin and AEP (see preceding examples). The organism was inoculated into Nutrient Broth and incubated overnight at 37° C. […] The test media were incubated at 37° C., and sampled at hourly intervals. The cultures were serially diluted in Buffered Peptone Water and inoculated onto Tryptone Soya Agar. These plates were incubated overnight at 37° C. and the total viable count made the next day.
# Typical results are shown in FIG. 15 which is a graph of total viable count (log10 cfu/ml) against time (hours).
# [16] = test system: heat stressed Salmonella typhimurium (OCC 1792); test: resuscitation of heat-stressed cells, microtitre MPN method (Example 14); assay type: cell-based; details: BPW supplemented with 3 different levels of AEP, relative to BPW alone
# Description: Salmonella typhimurium (OCC 1792) was heat stressed at 51.4° C. for 25 minutes according to the protocol of Stephens et al. (1997 J. Appl. Micro. 8, 445-455). Cells were diluted in 7 different resuscitation media: yeast extract broth with a high reactive oxygen species content that is inhibitory to stressed cells, SPRINT enrichment broth supplemented with Oxyrase that is an optimised resuscitation medium, BPW as the control that has typical resuscitation properties, BPW supplemented with NaCl that is inhibitory to stressed cells, and BPW supplemented with 3 different levels of AEP. Resuscitation was quantified using a microtitre MPN method.
# Typical results are shown in FIG. 20 which is a bar chart showing the difference in growth (Log cfu/ml) of the stressed cells in various media relative to growth in BPW alone.
# [17] = test system: Salmonella typhimurium OCC 722; test: Bioscreen growth, comparison with conventional selective agents (Example 12); assay type: cell-based; details: Buffered Peptone Water pH 6.8
# Description: (§5) The following is an example to illustrate the beneficial lower toxic properties of the new selective agents towards the target microorganism, in this case Salmonella. Two selective agents, cefsulodin and novobiocin, as used conventionally in Salmonella isolation from foods (Humphrey and Whitehead, 1992 British Poultry Science 33, 761-768) were compared with alaphosphin. All were dissolved in deionised water, filter sterilised, and an amount of the solution added to either autoclaved Lab-Lemco broth+phosphate buffer (20 g/l; pH 6.0; ala-AEP) or Buffered Peptone Water (pH 6.8; cefsulodin and novobiocin) to give final concentrations of 66, 16.5 and 11 μg/ml respectively. [The different pH values reflect the different pH optima of the selective agents (ala-AEP was also subsequently used in BPW at pH 6.8 and similar results obtained)]. Volumes (300 μl) were then pipetted into the wells of Bioscreen microtitre plates and 30 μl quantities of 1 in 10,000 dilutions of overnight cultures of E. coli OCC 2129 and Salmonella typhimurium OCC 722, added. Plates were then covered, incubated at 37° C., and the opacity of the organism suspensions measured using a Bioscreen instrument.
# (§6) Typical results are shown in FIGS. 17-19, which are graphs of optical density against time for S. typhimurium (circles) and E. coli (squares) in the presence (empty symbols) or absence (filled symbols) of 15 μg/ml cefsulodin (FIG. 17), 10 μg/ml novobiocin (FIG. 18) or 60 μg/ml alaphosphin (FIG. 19).
# E. coli OCC 2129 = test: as above; assay type: cell-based, Escherichia coli; details: at 12 hours
# Description: as §5, §6
structure (smiles),measurement,setting,value
CNCC(=O)NC(C)C(=O)NC(C)P(=O)(O)O (centres unmarked),MIC,Citrobacter freundii 370,1.0 µg/mL
same,MIC,[1],0.01 µg/mL
same,MIC,E. coli 607,0.05 µg/mL
same,MIC,[2],2.0 µg/mL
same,effect on growth of Salmonella typhimurium,[2]; sarcosyl-alanyl-AEP at 1.0 μg/ml,no effect
same,MIC,[3],8 µg/mL
same,MIC,[4],8 µg/mL
same,MIC,S. aureus (MRSA) 934,>100 µg/mL
same,MIC,S. aureus 198,>100 µg/mL
same,MIC,S. aureus ss aureus 2355,>100 µg/mL
same,MIC,[5],16 µg/mL
same,MIC,Enterococcus faecium 220,>256 µg/mL
same,concentration sufficient / required to inhibit the growth of all three undesired bacteria,[6],1.0 µg/mL
O=[N+]([O-])c1ccccc1O [2-nitrophenol],Log Partition Coefficient,[7],2.00^a
"CC(N)P(=O)(O)O [AEP, L-1-aminoethylphosphonic acid, reference compound]",concentration at which growth is inhibited,[8],≥ 5 mM
same,concentration at which growth is completely inhibited,[9],> 10 mM
same,concentration at which growth is completely inhibited,[10],≥ 5 mM
same,concentration at which growth is completely inhibited,[11],> 10 mM
same,sensitivity of growth (in words),[12],completely insensitive
same,inhibition of growth (in words),K. pneumoniae CMCC 3077 [13],neither organism was inhibited
same,inhibition of growth (in words),S. aureus OCC 102,neither organism was inhibited
same,concentration above which some sensitivity is exhibited,B. subtilis OCC 214,above 5 mM
same,sensitivity of growth (in words),K. pneumoniae CMCC 3077 [14],insensitive
same,effect on growth compared with Nutrient Broth control,[15],little effect
same,effect on resuscitation of heat-stressed Salmonella,[16],did not significantly affect
Nc1ccccc1 [Aniline],Log Partition Coefficient,[7],0.94^a
NC(=O)c1cc[n+](CC2=C(C(=O)O)N3C(=O)[C@@H](NC(=O)[C@@H](c4ccccc4)S(=O)(=O)[O-])[C@H]3SC2)cc1 [cefsulodin],effect on growth of S. typhimurium,[17]; 15 μg/ml cefsulodin,significantly inhibit
same,growth of E. coli relative to S. typhimurium,E. coli OCC 2129; 15 μg/ml cefsulodin,substantially outgrows
"CCC(C)C(N)C(=O)NC(C)P(=O)(O)O (centres unmarked) [isoleucyl-AEP, Isoleucyl-AEP]",MIC,Citrobacter freundii 370,2.0 µg/mL
same,MIC,[1],2.0 µg/mL
same,MIC,E. coli 607,2.0 µg/mL
same,MIC,[2],10 µg/mL
same,effect on growth of Salmonella typhimurium,[2]; isoleucyl-AEP at 2.0 μg/ml,no effect
same,MIC,[3],5 µg/mL
same,MIC,[4],5 µg/mL
same,MIC,S. aureus ss aureus 2355,>200 µg/mL
same,MIC,[5],5 µg/mL
same,MIC,Enterococcus faecium 220,5 µg/mL
same,concentration sufficient / required to inhibit the growth of all three undesired bacteria,[6],2.0 µg/mL
CO[C@@H]1[C@@H](OC(N)=O)[C@@H](O)[C@H](Oc2ccc3c(O)c(NC(=O)c4ccc(O)c(CC=C(C)C)c4)c(=O)oc3c2C)OC1(C)C [novobiocin],effect on growth of S. typhimurium,[17]; 10 μg/ml novobiocin,significantly inhibit
same,growth of E. coli relative to S. typhimurium,E. coli OCC 2129; 10 μg/ml novobiocin,substantially outgrows
